The subject of experiment [1] is histamine-induced bronchoconstriction. In words: Antihistaminergic activity in vivo (histamine-induced bronchoconstriction). Particulars: guinea pig, oral, 2 mg/kg; for inhibition in vivo at 2 mg/kg: Cavia porcellus. The protocol:
Male, Hartley guinea pigs are obtained from Charles River Labs at a body weight of 350 -400 grams. Inhibition of histamine activity is measured by the method of Konzett and Rössler (Naonyn-Schmiedebergs Arch. Exp. Path. Pharmakol. 195, 71-74 (1940). Anaethetized guinea pigs are subjected to artificial ventilation. The endotracheal pressure is recorded. Bronchoconstriction is induced by successive intravenous injections of histamine. The test compounds are administered orally in a 1% methocellulose suspension at set timepoints prior to the administration of histamine.
The results (Table 2) show the percent inhibition of histamine-induced bronchoconstriction by selected compounds at multiple time points post oral dosing. 50% inhibition or greater is considered significant.

In a further experiment the test system is 5-lipoxygenase. Briefly: 5-Lipoxygenase inhibitory activity in vivo. Particulars: guinea pig, oral, 2 mg/kg. The procedure:
Male, Hartley guinea pigs are obtained from Charles River Labs at a body weight of 350-400 grams. Compounds are prepared at a volume of [1-2 mg/ml] in 1% methocellulose for oral dosing. Animals are separated into groups of five (5). Each assay includes a control group dosed with vehicle. Each group of animals is dosed with either vehicle or compound by oral gavage. Animals are allowed to rest for one, three, or six hours after dosing. Control animals are allowed to rest for three hours. At the appropriate times, the animals are anesthetized with Urethane at 1.5 g/kg, ip. Blood is drawn into a heparinized syringe via cardiac puncture. Blood (0.5 ml) is aliquoted into separately-labeled 1.5 ml eppendorf tubes. Each sample is loaded with 5 μl of [15 mM] Arachidonic Acid, and placed in a 37° C. water bath for five minutes. After five minutes, the blood is stimulated with 5 μl of [5 mM] A23187 (Calcium Ionophore) and retained in the water bath for an additional 30 minutes. After the thirty minutes, the blood samples are removed from the water bath and centrifuged at 14,000 rpm for 2 minutes. Plasma is diluted to EIA buffer and an EIA is performed following manufacturer instructions (Cayman Chemical Co., Ann Arbor, Mich., USA). The results (Table 3) show the percent inhibition of 5-lipoxygenase by selected compounds at multiple time points post oral dosing. 50% inhibition or greater is considered significant.

Another experiment addresses T1, human cloned H1 receptor (Homo sapiens, UniProt P35367).
T1 construct: expressed in transfected cells; host or cells: CHO-K1
In words: CHO-K1 H1R binding assay. Particulars: 3H-pyrilamine 2 nM, CHO-K1 membranes, 3 hours at 37° C.; read-out: CHOH1 K1.

Experiment [2] deals with T2, human 5-lipoxygenase enzyme (Homo sapiens, UniProt P09917).
T2 construct: endogenous in cells; host or cells: human whole blood (leukocytes) stimulated with A23187
T2 sequence (P09917 1-674): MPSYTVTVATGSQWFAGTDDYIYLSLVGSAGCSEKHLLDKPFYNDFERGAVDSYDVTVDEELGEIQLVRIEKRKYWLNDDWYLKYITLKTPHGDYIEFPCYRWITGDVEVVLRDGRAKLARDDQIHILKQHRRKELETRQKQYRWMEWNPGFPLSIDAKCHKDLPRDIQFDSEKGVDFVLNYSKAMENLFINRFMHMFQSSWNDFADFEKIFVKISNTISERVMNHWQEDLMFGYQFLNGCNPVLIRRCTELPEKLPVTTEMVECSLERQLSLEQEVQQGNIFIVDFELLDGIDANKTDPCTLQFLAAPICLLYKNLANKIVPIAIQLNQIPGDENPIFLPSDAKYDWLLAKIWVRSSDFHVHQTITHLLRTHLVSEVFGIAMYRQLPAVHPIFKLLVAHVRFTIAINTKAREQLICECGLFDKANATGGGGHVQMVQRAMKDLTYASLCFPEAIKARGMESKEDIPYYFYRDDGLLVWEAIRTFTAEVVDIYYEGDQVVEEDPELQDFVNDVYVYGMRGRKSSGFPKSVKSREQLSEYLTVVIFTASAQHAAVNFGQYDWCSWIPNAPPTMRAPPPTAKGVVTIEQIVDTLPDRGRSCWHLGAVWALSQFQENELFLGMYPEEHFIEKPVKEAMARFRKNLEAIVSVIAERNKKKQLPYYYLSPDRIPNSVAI
In words: Inhibition of LTB4 production in human whole blood. Format: cell-based. The procedure: This assay examines the ability of a compound to inhibit leukotriene B4 production from human blood stimulated with calcium ionophore. As this production of leukotriene B4 is mediated via the activation of the 5-lipoxygenase enzyme, this assay is predictive of a compound's ability to inhibit the human 5-lipoxygenase enzyme.
The procedure for the assay is as follows. Blood is drawn from normal human volunteers into tubes containing heparin. 1 ml of the heparinized blood is pipetted into a 1.5 ml polypropylene tube. To this sample is added either different concentrations of the test compound (5 μl) dissolved in DMSO or 5 μl of DMSO as a vehicle control. These samples are incubated in a water bath, at 37° C. for 15 min. 5 μl of the calcium ionophore A23187 (at a final concentration of 50 μM) is then added to each sample, which is vortexed and placed back in the water bath for 30 min. The samples are then centrifuged at 2500 rpm for 10 min. at 4° C. 50 μl of the supernatant is transferred into pre-cooled Eppendorf tubes containing 950 μl of enzyme immunoassay (EIA) buffer. A commercially available EIA kit (Cayman Chemical Co., Ann Arbor, Mich., USA) is used to subsequently measure the LTB4 production in the samples. The LTB4 levels produced in the vehicle control sample is then compared to those in which the test compound has been added. From this a percent inhibition of LTB4 production by each concentration of test compound is calculated and the IC50 for inhibition of LTB4 production for each test compound is determined.

In a further experiment the target is T3, 15-lipoxygenase (Oryctolagus cuniculus, UniProt P12530).
T3 construct: from tissue; host or cells: rabbit peritoneal polymorphonuclear leukocytes
T3 sequence (P12530 1-663): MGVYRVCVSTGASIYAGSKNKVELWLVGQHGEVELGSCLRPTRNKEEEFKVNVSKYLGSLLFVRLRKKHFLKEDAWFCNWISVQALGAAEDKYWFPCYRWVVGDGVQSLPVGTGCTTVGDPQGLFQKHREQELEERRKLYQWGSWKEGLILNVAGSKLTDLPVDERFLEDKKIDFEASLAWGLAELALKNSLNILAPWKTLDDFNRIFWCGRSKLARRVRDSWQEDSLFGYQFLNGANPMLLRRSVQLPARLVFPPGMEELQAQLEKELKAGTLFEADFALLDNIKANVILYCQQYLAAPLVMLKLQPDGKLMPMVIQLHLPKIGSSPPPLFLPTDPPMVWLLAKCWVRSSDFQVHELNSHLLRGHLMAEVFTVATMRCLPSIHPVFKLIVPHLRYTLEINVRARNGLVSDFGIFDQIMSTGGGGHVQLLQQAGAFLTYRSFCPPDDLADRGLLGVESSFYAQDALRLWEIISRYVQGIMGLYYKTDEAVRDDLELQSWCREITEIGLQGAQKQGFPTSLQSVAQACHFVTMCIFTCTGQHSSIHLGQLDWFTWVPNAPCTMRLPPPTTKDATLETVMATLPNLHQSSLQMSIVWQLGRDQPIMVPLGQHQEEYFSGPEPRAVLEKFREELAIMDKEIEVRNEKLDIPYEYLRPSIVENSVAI
In words: Inhibition of 15-lipoxygenase (15-HETE production). Format: biochemical. Particulars: 15-lipoxygenase from rabbit peritoneal polymorphonuclear leukocytes, 5 min at 37° C. From the text: This assay examines the ability of a compound to inhibit production of 15-hydroxy-5, 8, 11, 13-eicosatetraenoic acid (15-HETE) via the action of 15-lipoxygenase on arachidonic acid. 15-lipoxygenase was purified from rabbit peritoneal polymorphonuclear leukocytes. The enzyme is responsible for the conversion of arachidonic acid (via oxygenation at carbon 15 of arachidonic acid) to 15-hydroperoxy-5, 8, 11, 13-eicosatetraenoic acid (15-HPETE), which then reduced to 15-hydroxy-5, 8, 11, 13-eicosatetraenoic acid (15-HETE).
The procedure for the assay is as follows. Arachidonic acid is co-incubated with […] for 5 min at 37° C. in the presence or absence of different concentrations of test compound (10^−8 to 10^−5 M). Production of 15-HETE in each sample is then measured by radioimmunoassay. The 15-HETE levels produced in the vehicle control sample are then compared to those in which the test compound has been added.

Setting [3] is: human whole blood, calcium ionophore A23187 50 μM, LTB4 by EIA, read-out: HWB IC50.

Where two headings read alike, the source gives them in different places.

T1 sequence (P35367 whole entry): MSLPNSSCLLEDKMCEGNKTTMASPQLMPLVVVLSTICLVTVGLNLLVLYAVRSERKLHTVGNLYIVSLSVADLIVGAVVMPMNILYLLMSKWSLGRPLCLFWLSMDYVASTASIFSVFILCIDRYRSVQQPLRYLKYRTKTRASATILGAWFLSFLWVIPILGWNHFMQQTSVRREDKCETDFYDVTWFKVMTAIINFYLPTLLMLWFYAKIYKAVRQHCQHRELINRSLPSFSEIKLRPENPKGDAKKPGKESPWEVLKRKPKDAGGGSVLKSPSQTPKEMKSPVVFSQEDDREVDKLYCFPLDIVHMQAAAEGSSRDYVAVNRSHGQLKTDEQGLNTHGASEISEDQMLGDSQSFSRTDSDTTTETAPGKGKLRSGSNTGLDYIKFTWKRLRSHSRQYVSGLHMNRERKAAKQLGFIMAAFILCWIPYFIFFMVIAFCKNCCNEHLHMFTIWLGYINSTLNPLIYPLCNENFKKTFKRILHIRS
Description for human cloned H1 receptor: CHO-K1 cells expressing the human cloned H1 receptor are grown to confluence in tissue culture dishes. Cells are harvested using D-PBS buffer (JRH Biosciences), kept at 4° C., centrifuging to pellet cells (4° C., 500 g, 10 min). The final cell pellet is homogenized and resuspended using Tris/sucrose buffer (20 mM Tris, 250 mM sucrose, pH 7.4 at 4° C.). Aliquots of the membrane preparation are stored at −70° C.
On the day of assay, the membrane preparation is thawed and centrifuged (TLA100.3 rotor, 4° C., 15 min, 23,000 rpm). The pellet is resuspended in Tris/sucrose buffer initially and then diluted further as necessary using assay buffer A (50 mM Na/KPO4, 2 mM MgCl2, 0.5% (w/v) BSA, pH 7.5).
For the binding assay, the membrane preparation, test compound and ^3H-pyrilamine (2 nM final) in buffer A with 1% (v/v) DMSO final are incubated in a 96-well polypropylene plate for 3 hours at 37° C. Non-specific binding is determined in the presence of 10 μM pyrilamine. A 96-well harvester (Packard) is used to harvest the 96-well plate onto a GF/B filter plate pre-treated with 0.1% (v/v) PEI. The plate is counted in a Packard Topcounter after adding Microscint 20 (Packard) scintillation fluid. The Ki for each compound at the histamine H1 receptor is then calculated from these counts.

`NC(=O)N(O)CCCCc1ccc(OCCN2CCN([C@H](c3ccccc3)c3ccc(Cl)cc3)CC2)cc1` [Compound 17, N-{4-[4-(2-{4-[(1R) (4-chlorophenyl)phenyl-methyl]piperazinyl}ethoxy)phenyl]butyl} amino-N-hydroxyamide]: the inhibition in vivo (in general, the percentage by which the read-out fell short of the control) at 2 mg/kg in experiment [1] (3 hrs) was 66%; in experiment [1] (6 hrs), 73%. Also, the results for the “% inhibition of 5-lipoxygenase” value in the experiment on 5-lipoxygenase (3 hours) and in the experiment on 5-lipoxygenase (6 hours) were 70% and 94%, respectively. The Ki on human cloned H1 receptor stood at 15 nM. The half-maximal inhibitory concentration (IC50) (in general, the concentration that inhibits the measured activity by half) in experiment [2] (setting [3]) stood at 254 nM.
As to `NC(=O)N(O)CCC#Cc1ccc(OCCN2CCC(=C3c4ccc(Cl)cc4CCc4cccnc43)CC2)cc1` [Compound 32], the IC50 against 15-lipoxygenase worked out at 170 nM; in experiment [2] (setting [3]), 263 nM. The same compound gave an inhibition in vivo at 2 mg/kg in experiment [1] (3 hrs) of 65%. The “% inhibition of 5-lipoxygenase” value with 5-lipoxygenase (1 hour) was determined as 88%.
Take `NC(=O)N(O)CCC#Cc1ccc(CN2CCN([C@H](c3ccccc3)c3ccc(Cl)cc3)CC2)o1` [Compound 27, N-{4-[5-({4-[(1R) (4-chlorophenyl)phenylmethyl]piperazinyl}methyl)(2-furyl)]but-3-ynyl}amino-N-hydroxyamide]: in experiment [1] (3 hrs), the inhibition in vivo at 2 mg/kg is 86%. In experiment [1] (6 hrs), at 2 mg/kg the inhibition in vivo was 91% and the “% inhibition of histamine-induced bronchoconstriction” value is 91%. In addition, the “% inhibition of 5-lipoxygenase” value in the experiment on 5-lipoxygenase (1 hour) came to 88%. For the same compound, the Ki at human cloned H1 receptor turned out to be 150 nM. The IC50 in experiment [2] (setting [3]) stood at 650 nM.
In the case of `NC(=O)N(O)CCC#Cc1ccc(OCCCN2CCN([C@H](c3ccccc3)c3ccc(Cl)cc3)CC2)cc1` [Compound 52, N-{4-[4-(3-{4-[(1R)(4-chlorophenyl)phenyl-methyl]piperazinyt}propoxy)phenyl]but-3-ynyl}amino-N-hydroxyamide], the figures for the IC50 (against 15-lipoxygenase; in experiment [2] (setting [3])) were 61 nM and 105 nM, respectively. In experiment [1] (3 hrs), this compound returned an inhibition in vivo at 2 mg/kg of 69%. Also, the “% inhibition of 5-lipoxygenase” value with 5-lipoxygenase (3 hours) worked out at 61%.
Consider `NC(=O)N(O)CCC#Cc1cccc(OCCN2CCN([C@H](c3ccccc3)c3ccc(Cl)cc3)CC2)c1` [Compound 23, N-{4-[3-(2-{4-[(1R)(4-chlorophenyl)phenylmethyl]piperazinyl}ethoxy)phenyl]but-3-ynyl}amino-N-hydroxyamide], for which the inhibition in vivo at 2 mg/kg turned out to be 80% in experiment [1] (3 hrs) and 92% in experiment [1] (6 hrs). Besides, the “% inhibition of 5-lipoxygenase” value in the experiment with 5-lipoxygenase (1 hour) was found to be 80%. For the same compound, the Ki at human cloned H1 receptor was 10 nM. In experiment [2] (setting [3]), the concentration for half-maximal inhibition (IC50) was determined as 287 nM.
With `NC(=O)N(O)CCC#Cc1ccc(OCCN2CCN(C(c3ccc(F)cc3)c3ccc(F)cc3)CC2)cc1[N+](=O)[O-]` [Compound 87, N-{4-[4-(2-{4-[bis(4-fluorophenyl)methyl]-1-piperazinyl}ethoxy)-2-nitrophenyl]-3-butynyl)-N-hydroxyurea], the inhibition in vivo at 2 mg/kg was 66% in experiment [1] (3 hrs) and 73% in experiment [1] (6 hrs). The “% inhibition of 5-lipoxygenase” value with 5-lipoxygenase (1 hour) turned out to be 70%; in the experiment on 5-lipoxygenase (6 hours) it was 94%. Also, the Ki at human cloned H1 receptor was found to be 58 nM. Further, the IC50 in experiment [2] (setting [3]) was determined as 251 nM.
For the compound `NC(=O)N(O)CCC#Cc1ccc(CN2CCN(C(c3ccc(F)cc3)c3ccc(F)cc3)CC2)o1` [Compound 34, amino-N-{4-[5-({4-[bis (4-fluorophenyl)methyl]piperazinyl}methyl) (2-furyl)]but-3-ynyl}-N-hydroxyamide], the inhibition in vivo at 2 mg/kg in experiment [1] (3 hrs) came out at 81%; in experiment [1] (6 hrs), 89%. Moreover, in the experiment with 5-lipoxygenase (3 hours), the “% inhibition of 5-lipoxygenase” value is given as 38%. On human cloned H1 receptor, the Ki was 550 nM. In experiment [2], 142 nM corresponded to half-maximal inhibition (IC50).
`NC(=O)c1cc(C#CCCN(O)C(N)=O)ccc1OCCN1CCN([C@H](c2ccccc2)c2ccc(Cl)cc2)CC1` [Compound 35, 2-(2-{4-[(1R) (4-chlorophenyl)phenyl-methyl]piperazinyl}ethoxy)-5-[4-(amino-hydroxycarbonylamino)but-1-ynyl]benzamide]: the IC50 against 15-lipoxygenase was 46 nM; in experiment [2] (setting [3]), 85 nM. Also, the inhibition in vivo at 2 mg/kg in experiment [1] (3 hrs) amounted to 72%; in experiment [1] (6 hrs), 88%. The figures for the “% inhibition of 5-lipoxygenase” value in the experiment with 5-lipoxygenase (1 hour) and in the experiment with 5-lipoxygenase (3 hours) were 87% and 97%, respectively. Also, the Ki at human cloned H1 receptor is 135 nM.
Consider `NC(=O)N(O)CCC#Cc1ccc(OCCCCN2CCN(C(c3ccc(F)cc3)c3ccc(F)cc3)CC2)cc1` [Compound 80, amino-N-{4-[4-(4-{4-[bis(4-fluorophenyl)methyl]piperazinyl}butoxy)phenyl]but-3-ynyl}-N-hydroxyamide], for which the IC50 at 15-lipoxygenase worked out at 110 nM; in experiment [2] (setting [3]), 78 nM. The same compound had an inhibition in vivo at 2 mg/kg in experiment [1] (3 hrs) of 98%. Also, the “% inhibition of 5-lipoxygenase” value with 5-lipoxygenase (3 hours) is listed as 73%; in the experiment on 5-lipoxygenase (6 hours), 88%.
